Data published in ChEMBL document CHEMBL5131465, “Pyrazoline analogues: Design, synthesis, and evaluation of anti-osteoporosis activity” (Bioorg Med Chem Lett, 2022).
Calls of active or inactive are those of the source.

Legend:
Type in all cases: functional, cell-based
Calvarial osteoblast [1] = assay: Induction of osteoblast differentiation in mouse calvarial osteoblasts assessed as increase in ALP activity at 0.000001 to 1 uM by spectrophotometric analysis; settings: dose lower 1e-06 µM, dose upper 1.0 µM
Calvarial osteoblast [2] = assay: Cytoprotective activity against serum deprivation-induced apoptosis in mouse calvarial osteoblasts assessed as reduction in BAX protein expression at 1 to 100 pM by western blot analysis; settings: dose 1-100 pM
Calvarial osteoblast [3] = assay: Induction of osteoblast differentiation in mouse calvarial osteoblasts assessed as increase in cell viability at 0.000001 to 1 uM by MTT assay; settings: dose lower 1e-06 µM, dose upper 1.0 µM
HBMSC = assay: Induction of new bone formation in BMSC cells (unknown origin) assessed as increase in formation of mineralized nodules at 1 to 100 pM; settings: Homo sapiens, dose 1-100 pM
Calvarial osteoblast [4] = assay: Induction of new bone formation in mouse calvarial osteoblasts assessed as increase in intracellular calcium level at 1 to 100 pM by Fluo-4AM dye based assay; settings: dose 1-100 pM
Calvarial osteoblast [5] = assay: Induction of osteoblast differentiation in mouse calvarial osteoblasts assessed as increase in Type-1 collagen mRNA expression at 1 to 100 pM after 48 hrs by qPCR analysis; settings: dose 1-100 pM
Calvarial osteoblast [6] = assay: Induction of osteoblast differentiation in mouse calvarial osteoblasts assessed as increase in RUNX-2 mRNA expression at 1 to 100 pM after 48 hrs by qPCR analysis; settings: dose 1-100 pM
Calvarial osteoblast [7] = assay: Induction of osteoblast differentiation in mouse calvarial osteoblasts assessed as increase in BMP2 mRNA expression at 1 to 100 pM after 48 hrs by qPCR analysis; settings: dose 1-100 pM
Calvarial osteoblast [8] = assay: Induction of osteoblast differentiation in mouse calvarial osteoblasts assessed as increase in Type-1 collagen protein expression at 1 to 100 pM after 48 hrs by western blot analysis; settings: dose 1-100 pM
Calvarial osteoblast [9] = assay: Induction of osteoblast differentiation in mouse calvarial osteoblasts assessed as increase in RUNX2 protein expression at 1 to 100 pM after 48 hrs by western blot analysis; settings: dose 1-100 pM
Calvarial osteoblast [10] = assay: Induction of osteoblast differentiation in mouse calvarial osteoblasts assessed as increase in BMP2 protein expression at 1 to 100 pM after 48 hrs by western blot analysis; settings: dose 1-100 pM
Calvarial osteoblast [11] = assay: Cytoprotective activity against serum deprivation-induced apoptosis in mouse calvarial osteoblasts assessed as reduction in apoptotic cells at 1 to 100 pM by Annexin/PI staining based flow cytometric analysis; settings: dose 1-100 pM
Calvarial osteoblast [12] = assay: Cytoprotective activity against serum deprivation-induced apoptosis in mouse calvarial osteoblasts assessed as increase in Bcl-2 protein expression at 1 to 100 pM by western blot analysis; settings: dose 1-100 pM

Measured: Activity

CC1(C)C=Cc2c(ccc(C(=O)/C=C/c3ccc(Cl)cc3)c2O)O1
active: Calvarial osteoblast [1]

CC(=O)N1N=C(c2c(O)ccc3c2OC(C)(C)C=C3)CC1c1ccc(Cl)cc1 (stereo not drawn)
active: Calvarial osteoblast [1]

CC(C)=CCC1(C)C=Cc2ccc(O)c(C(=O)/C=C/c3ccc(Cl)cc3)c2O1 (stereo not drawn)
active: Calvarial osteoblast [1]

CC1(C)C=Cc2ccc(O)c(C3=NNC(c4ccc(Cl)cc4)C3)c2O1 (stereo not drawn)
active: Calvarial osteoblast [2] | Calvarial osteoblast [1] | Calvarial osteoblast [3] | HBMSC | Calvarial osteoblast [4] | Calvarial osteoblast [5] | Calvarial osteoblast [6] | Calvarial osteoblast [7] | Calvarial osteoblast [8] | Calvarial osteoblast [9] | Calvarial osteoblast [10] | Calvarial osteoblast [11] | Calvarial osteoblast [12]

CC1(C)C=Cc2c(ccc(C3=NN(c4ccccc4)C(c4ccc(Cl)cc4)C3)c2O)O1 (stereo not drawn)
active: Calvarial osteoblast [1]

CC1(C)C=Cc2ccc(O)c(-c3cc(-c4ccc(Cl)cc4)on3)c2O1
active: Calvarial osteoblast [1]
